Activity calls are given as the source filed them.
Assays:
[1] = target: T1, Replicative DNA helicase DnaB (Mycobacterium tuberculosis, UniProt P9WMR3); experiment: DnaB intein splicing inhibitors, dose response, biochemical, cell-free fluorescence (AID 449749); format: functional
T1 sequence (P9WMR3 whole entry): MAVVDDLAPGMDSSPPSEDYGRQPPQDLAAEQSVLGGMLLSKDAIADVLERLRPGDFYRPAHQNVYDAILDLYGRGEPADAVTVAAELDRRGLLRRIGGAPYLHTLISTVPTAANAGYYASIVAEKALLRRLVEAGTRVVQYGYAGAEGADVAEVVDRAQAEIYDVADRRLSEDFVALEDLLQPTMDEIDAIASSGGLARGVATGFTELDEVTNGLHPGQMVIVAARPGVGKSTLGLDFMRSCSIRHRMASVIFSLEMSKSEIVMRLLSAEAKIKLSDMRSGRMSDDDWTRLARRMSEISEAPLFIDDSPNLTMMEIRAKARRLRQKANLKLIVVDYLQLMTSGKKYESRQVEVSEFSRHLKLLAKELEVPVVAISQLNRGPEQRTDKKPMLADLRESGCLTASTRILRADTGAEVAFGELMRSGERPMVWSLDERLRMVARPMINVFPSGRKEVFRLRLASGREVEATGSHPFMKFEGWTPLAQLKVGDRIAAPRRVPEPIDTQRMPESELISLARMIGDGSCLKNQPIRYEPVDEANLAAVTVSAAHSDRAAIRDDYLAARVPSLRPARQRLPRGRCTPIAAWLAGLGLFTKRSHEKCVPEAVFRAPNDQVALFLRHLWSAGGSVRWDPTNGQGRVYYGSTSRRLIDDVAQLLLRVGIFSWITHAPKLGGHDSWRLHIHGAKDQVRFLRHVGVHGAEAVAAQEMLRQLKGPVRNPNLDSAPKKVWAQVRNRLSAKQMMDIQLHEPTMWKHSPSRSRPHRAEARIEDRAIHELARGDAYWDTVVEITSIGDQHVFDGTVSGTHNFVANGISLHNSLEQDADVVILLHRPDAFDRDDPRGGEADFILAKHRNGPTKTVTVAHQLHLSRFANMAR

[2] = target: T2, Protein RecA (Mycobacterium tuberculosis, UniProt P9WHJ3); experiment: Fluorescence Cell-Free Homogeneous Dose Retest to Identify Inhibitors of RecA-Intein Splicing Activity. [Related pubchem assays (depositor defined):AID2097, AID2223, AID489010, AID492950]; format: functional
T2 sequence (P9WHJ3 whole entry): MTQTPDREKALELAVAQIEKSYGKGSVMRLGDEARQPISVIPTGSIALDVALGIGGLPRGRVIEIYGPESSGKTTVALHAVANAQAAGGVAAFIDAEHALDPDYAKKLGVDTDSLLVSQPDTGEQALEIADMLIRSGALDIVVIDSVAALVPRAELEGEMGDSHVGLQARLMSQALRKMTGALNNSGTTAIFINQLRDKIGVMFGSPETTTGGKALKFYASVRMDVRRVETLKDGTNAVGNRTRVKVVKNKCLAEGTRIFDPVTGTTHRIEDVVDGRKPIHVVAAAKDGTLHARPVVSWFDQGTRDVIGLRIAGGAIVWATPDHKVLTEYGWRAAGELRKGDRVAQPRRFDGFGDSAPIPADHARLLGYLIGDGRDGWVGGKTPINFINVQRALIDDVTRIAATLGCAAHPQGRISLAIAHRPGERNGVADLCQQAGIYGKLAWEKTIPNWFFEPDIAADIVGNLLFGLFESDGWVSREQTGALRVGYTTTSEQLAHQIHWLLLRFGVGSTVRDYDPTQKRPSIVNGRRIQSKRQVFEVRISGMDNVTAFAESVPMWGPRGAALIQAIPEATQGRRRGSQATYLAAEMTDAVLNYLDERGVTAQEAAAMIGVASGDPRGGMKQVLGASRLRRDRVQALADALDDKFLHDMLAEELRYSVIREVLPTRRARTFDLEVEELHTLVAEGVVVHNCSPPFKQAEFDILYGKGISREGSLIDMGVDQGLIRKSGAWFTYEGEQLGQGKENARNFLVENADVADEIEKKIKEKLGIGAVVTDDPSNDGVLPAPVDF

[3] = target: Alkaline phosphatase, placental type (Homo sapiens, UniProt P05187); experiment: human placental alkaline phosphatase inhibition – biochemical, luminescence, confirmation (AID 1512); format: functional
Sequence of Alkaline phosphatase, placental type (P05187 whole entry): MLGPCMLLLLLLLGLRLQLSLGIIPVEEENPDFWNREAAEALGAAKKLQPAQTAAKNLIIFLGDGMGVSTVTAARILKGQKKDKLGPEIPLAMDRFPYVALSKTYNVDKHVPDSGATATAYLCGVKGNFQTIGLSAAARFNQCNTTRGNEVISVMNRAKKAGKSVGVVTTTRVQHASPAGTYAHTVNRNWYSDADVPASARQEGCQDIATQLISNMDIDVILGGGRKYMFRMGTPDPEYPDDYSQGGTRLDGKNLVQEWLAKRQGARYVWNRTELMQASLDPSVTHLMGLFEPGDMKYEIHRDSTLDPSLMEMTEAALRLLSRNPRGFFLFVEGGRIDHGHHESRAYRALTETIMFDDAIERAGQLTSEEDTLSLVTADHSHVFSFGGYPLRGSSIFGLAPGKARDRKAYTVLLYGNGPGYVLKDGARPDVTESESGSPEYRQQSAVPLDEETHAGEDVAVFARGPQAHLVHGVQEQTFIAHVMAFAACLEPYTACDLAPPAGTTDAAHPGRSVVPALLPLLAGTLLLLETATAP

[4] = target: T3, Alkaline phosphatase, tissue-nonspecific isozyme (Homo sapiens, UniProt P05186); experiment: potency against alkaline phosphatase TNAP – biochemical, luminescent, dose response, SAR follow-up (AID 1056)
T3 sequence (P05186 whole entry): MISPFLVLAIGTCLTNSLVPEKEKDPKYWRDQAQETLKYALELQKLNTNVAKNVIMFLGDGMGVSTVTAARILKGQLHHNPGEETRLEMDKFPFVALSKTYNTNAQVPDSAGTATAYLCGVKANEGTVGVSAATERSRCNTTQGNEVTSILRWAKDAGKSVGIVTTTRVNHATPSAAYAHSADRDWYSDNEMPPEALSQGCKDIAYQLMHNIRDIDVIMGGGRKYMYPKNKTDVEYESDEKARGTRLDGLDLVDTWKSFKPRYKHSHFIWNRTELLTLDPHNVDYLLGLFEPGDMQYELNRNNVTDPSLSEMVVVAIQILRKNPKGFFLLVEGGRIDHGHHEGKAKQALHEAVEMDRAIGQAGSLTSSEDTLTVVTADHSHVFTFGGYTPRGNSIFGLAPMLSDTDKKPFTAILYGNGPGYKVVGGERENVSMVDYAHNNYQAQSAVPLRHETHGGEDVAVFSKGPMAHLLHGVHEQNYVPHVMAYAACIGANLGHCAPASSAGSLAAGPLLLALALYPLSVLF

[5] = target: Glyceraldehyde-3-phosphate dehydrogenase (Homo sapiens, UniProt P04406)
Sequence of Glyceraldehyde-3-phosphate dehydrogenase (P04406 whole entry, the tested form may be a part): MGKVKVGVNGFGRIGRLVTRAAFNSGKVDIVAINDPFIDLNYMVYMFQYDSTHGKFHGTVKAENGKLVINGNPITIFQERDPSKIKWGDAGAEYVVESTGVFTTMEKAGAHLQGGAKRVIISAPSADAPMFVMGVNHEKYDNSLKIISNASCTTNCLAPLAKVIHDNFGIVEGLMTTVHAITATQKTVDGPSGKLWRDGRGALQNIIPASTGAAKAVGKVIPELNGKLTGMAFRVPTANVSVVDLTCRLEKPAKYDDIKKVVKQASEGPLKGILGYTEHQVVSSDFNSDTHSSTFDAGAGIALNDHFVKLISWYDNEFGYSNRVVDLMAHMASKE

[6] = HIV-1 AD8 envelope cell-cell fusion blockers – cherry-pick, dose response (AID 652062); format: functional, cell-based;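 further: luciferase signal from cell-cell fusion driven by HIV-1 clade B AD8 Env; potency is for inhibitors of fusion seen as a drop in luminescence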
[7] = target: Tumor necrosis factor (Homo sapiens, UniProt P01375); experiment: analog potency on TNFa NF-kB signaling – cell-based, revised, SAR follow-up (AID 2337); format: functional
Sequence of Tumor necrosis factor (P01375 whole entry): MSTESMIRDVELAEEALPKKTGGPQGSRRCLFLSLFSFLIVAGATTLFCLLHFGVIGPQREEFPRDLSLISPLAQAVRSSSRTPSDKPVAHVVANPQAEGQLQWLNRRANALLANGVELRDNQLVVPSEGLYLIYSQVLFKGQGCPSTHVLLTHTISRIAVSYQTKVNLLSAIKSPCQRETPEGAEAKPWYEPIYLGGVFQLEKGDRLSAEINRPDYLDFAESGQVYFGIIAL

[8] = test system: HEK293; experiment: cells; conditions: Homo sapiens;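 further: cells exposed to compound for 14 hours overnight before viability readout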
[9] = target: T4, COUP transcription factor 2 (Homo sapiens, UniProt P24468); experiment: Luminescence-based cell-based high throughput dose response assay to identify inhibitors of COUP-TFII (NR2F2).; format: functional;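 further: HEK293 cells transiently cotransfected with COUP-TFII expression vector and reporter; luciferase reporter luminescence driven by COUP-TFII from the pX2-168 reporter plasmid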
T4 sequence (P24468 whole entry): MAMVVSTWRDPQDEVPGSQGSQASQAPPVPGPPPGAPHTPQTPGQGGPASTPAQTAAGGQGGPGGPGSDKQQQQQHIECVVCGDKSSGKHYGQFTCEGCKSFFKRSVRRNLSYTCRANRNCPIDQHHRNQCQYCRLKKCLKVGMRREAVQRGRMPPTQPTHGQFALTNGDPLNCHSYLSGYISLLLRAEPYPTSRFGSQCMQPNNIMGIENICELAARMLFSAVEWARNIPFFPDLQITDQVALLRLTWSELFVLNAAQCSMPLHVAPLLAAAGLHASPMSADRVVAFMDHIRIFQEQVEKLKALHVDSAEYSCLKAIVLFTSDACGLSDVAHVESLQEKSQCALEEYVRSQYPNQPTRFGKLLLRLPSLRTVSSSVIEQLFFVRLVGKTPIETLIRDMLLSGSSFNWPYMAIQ

[10] = blockers of HIV-1 ZM109 envelope-driven cell-cell fusion – HeLa effector, CEM target cells, luciferase, cherry-pick, dose response (AID 652058); format: functional, cell-based;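 further: luciferase signal from HIV-1 Env mediated cell-cell fusion of effector and target cells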
[11] = target: T5, Nucleotide-binding oligomerization domain-containing protein 1 (Homo sapiens, UniProt Q9Y239); experiment: blockers of NOD1 pathway activity – revised, SAR follow-up (AID 2333); format: functional
T5 sequence (Q9Y239 whole entry): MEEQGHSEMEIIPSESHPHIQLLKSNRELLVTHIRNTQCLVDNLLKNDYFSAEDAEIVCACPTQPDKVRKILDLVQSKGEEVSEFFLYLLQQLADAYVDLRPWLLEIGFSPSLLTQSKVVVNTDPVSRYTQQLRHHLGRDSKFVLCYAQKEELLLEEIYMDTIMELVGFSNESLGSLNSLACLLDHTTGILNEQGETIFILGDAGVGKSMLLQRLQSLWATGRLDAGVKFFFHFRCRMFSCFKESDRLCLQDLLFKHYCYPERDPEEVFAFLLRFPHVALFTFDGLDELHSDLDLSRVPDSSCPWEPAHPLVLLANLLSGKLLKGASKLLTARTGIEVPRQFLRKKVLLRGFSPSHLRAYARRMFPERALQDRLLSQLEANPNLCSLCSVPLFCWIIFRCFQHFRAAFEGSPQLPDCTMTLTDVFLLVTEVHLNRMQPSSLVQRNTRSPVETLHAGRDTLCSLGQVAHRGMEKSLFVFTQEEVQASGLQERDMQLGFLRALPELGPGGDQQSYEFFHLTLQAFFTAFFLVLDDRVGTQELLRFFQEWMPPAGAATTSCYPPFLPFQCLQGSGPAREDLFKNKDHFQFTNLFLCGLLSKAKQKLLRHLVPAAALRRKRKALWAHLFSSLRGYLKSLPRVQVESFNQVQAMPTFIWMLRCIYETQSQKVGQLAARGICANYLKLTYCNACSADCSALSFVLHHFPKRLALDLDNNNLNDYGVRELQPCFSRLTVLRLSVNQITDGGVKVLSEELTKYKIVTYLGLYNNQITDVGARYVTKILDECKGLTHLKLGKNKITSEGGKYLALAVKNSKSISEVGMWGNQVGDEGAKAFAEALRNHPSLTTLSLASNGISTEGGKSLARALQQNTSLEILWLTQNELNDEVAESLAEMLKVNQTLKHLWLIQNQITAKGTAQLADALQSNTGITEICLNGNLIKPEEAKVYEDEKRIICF

[12] = target: T6, Intestinal-type alkaline phosphatase (Homo sapiens, UniProt P09923); experiment: activation of human intestinal alkaline phosphatase – biochemical, luminescent, uHTS hits, set 2, dose response (AID 488817); format: functional;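 further: potency of activators that raise enzyme activity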
T6 sequence (P09923 whole entry): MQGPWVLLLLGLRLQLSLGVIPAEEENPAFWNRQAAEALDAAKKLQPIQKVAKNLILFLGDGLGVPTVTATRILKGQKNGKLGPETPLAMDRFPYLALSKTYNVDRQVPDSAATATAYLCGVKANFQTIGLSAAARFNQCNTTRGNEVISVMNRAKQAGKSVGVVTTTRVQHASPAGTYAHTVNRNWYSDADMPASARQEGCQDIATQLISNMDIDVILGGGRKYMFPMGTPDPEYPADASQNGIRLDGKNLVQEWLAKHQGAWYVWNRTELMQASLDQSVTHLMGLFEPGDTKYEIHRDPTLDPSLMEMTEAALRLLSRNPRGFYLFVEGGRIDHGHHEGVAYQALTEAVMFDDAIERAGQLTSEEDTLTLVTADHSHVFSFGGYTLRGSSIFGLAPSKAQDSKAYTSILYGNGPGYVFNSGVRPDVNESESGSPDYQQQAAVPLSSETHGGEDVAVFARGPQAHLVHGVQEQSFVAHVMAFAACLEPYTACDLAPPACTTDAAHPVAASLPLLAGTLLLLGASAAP

[13] = target: Intestinal-type alkaline phosphatase (Mus musculus, UniProt P24822); experiment: PubChem AID 488874; format: functional
Sequence of Intestinal-type alkaline phosphatase (Mus musculus, UniProt P24822) (P24822 whole entry): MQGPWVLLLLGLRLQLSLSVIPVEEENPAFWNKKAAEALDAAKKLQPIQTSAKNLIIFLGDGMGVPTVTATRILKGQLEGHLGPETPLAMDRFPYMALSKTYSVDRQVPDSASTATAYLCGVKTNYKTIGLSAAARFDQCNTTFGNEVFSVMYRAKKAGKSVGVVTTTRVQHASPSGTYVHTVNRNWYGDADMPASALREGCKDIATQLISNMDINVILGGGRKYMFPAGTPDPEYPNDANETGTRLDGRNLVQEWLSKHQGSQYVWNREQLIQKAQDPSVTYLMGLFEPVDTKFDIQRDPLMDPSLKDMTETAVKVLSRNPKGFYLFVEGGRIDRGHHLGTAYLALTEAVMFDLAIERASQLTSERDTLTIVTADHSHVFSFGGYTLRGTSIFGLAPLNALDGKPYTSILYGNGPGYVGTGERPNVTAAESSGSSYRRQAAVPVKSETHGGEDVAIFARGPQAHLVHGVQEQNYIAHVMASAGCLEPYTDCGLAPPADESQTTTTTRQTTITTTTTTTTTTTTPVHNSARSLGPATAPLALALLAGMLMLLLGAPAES

[14] = target: T6, Intestinal-type alkaline phosphatase; experiment: human intestinal alkaline phosphatase activators, dose response, biochemical, luminescence, uHTS hits (AID 463120); format: functional
[15] = target: T3, Alkaline phosphatase, tissue-nonspecific isozyme; experiment: activation of tissue-nonspecific alkaline phosphatase – biochemical, TNAP isozyme, human IAP uHTS hits, selectivity assay for human IAP activator project, dose response (AID 488886); format: functional;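 further: potency of compounds raising TNAP activity as a selectivity check on IAP activators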
[16] = target: T7, High affinity choline transporter 1 (Homo sapiens, UniProt Q9GZV3); experiment: human choline transporter blockers, potency – cell-based, 5-point CRC, membrane potential dye, dose response (AID 504840); format: functional
T7 sequence (Q9GZV3 whole entry): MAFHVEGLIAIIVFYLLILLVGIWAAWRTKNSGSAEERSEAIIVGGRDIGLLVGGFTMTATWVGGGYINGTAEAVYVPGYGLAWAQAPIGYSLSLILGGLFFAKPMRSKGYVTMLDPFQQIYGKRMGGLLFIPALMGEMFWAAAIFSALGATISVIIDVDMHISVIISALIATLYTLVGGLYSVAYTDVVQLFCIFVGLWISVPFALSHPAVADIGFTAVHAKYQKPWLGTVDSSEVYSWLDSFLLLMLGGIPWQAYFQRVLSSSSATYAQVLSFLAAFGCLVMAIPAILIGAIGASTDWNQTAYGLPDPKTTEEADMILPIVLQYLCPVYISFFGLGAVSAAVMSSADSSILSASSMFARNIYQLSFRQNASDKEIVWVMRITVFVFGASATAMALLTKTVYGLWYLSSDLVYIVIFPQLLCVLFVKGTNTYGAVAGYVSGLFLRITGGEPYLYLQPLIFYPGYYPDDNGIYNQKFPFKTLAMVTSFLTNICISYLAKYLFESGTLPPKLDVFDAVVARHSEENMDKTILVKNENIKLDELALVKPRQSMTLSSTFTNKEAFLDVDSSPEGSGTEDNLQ

[17] = viability loss of HMLE_sh_eGFP cells – cell-based, luminescence, counter-screen for HMLE_sh_ECad selective toxicity project, dose response (AID 463074); format: functional, Homo sapiens;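 further: HMLE human mammary epithelial cells expressing control shRNA against eGFP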
[18] = Luminescence Cell-Based Dose Retest to Confirm Inhibitors of Cancer Stem Cells. [Related pubchem assays (depositor defined):AID2717, AID2721]; format: functional; conditions: Homo sapiens

Compound: CCCc1c(O)oc2nnc(C)c-2c1C
- AC50 [1]: 23.6 µM (active)
- EC50 [2]: 14.8 µM (active)
- IC50 [3]: > 100 µM (inactive)
- IC50 [4]: > 100 µM (inactive)
- IC50 [5]: > 100 µM (not active)

Compound: Cc1cc(C(=O)NC2CCCc3c2cnn3-c2ccc(C(C)(C)C)cc2)nn1C (stereo not drawn)
- AC50 [6]: 4.61 µM (active)
- IC50 [7]: 1.44 µM (active)
- IC50 [8]: 12.2 µM (active)
- IC50 [9]: 5.2 µM (active)
- AC50 [10]: 1.86 µM (active)
- IC50 [11]: 1.33 µM (active)

Compound: CCOc1ccc(CC(=O)NNC(=S)NC2CCCCC2)cc1OCC
- EC50 [12]: 17.8 µM (active)
- IC50 [13]: 40.9 µM (active)
- EC50 [14]: 18.7 µM (active)
- EC50 [15]: 17.2 µM (active)

Compound: CC1CCN(CCNC(=O)C2CCCN(S(=O)(=O)c3cccc4nsnc34)C2)CC1 (stereo not drawn)
- IC50 [16]: 15.8 µM (active)

Compound: O=C(c1cccc(Br)c1)c1coc2ccc(O)cc12
- AC50 [17]: 23.1 µM (active)
- AC50 [18]: 0.913 µM (active)

Reference: ChEMBL document CHEMBL1201862, “PubChem BioAssay data set” (2004)
